# Entries after “also recorded” stand apart in the source; their conditions may differ. Bridges are numbered along the chain shown (N, C = ends).
# How the values were obtained:
# DRG neurons [1] = experiment: NGF-mediated neurite outgrowth of DRG neurons, metal ions; type: cell-based, chick; conditions: 50 and 100 μM
# Procedure: (§1) Dissosiated cells enriched for sensory neurons were prepared from ED8 chick DRG as described (Dostaler, S. M. et al. Characterization of a distinctive motif of the low molecular weight neurotrophin receptor that modulates NGF-mediated neurite growth. Eur. J. Neurosci. 8, 870-879 (1996)). Neurons were seeded at a density of 800-1000 cells/well in Ham's F-12 containing 5% FCS and NGF at 10 pM into wells of Terasaki plates treated with polyysine. The cells were incubated with the indicated additives at 37° C. in a 5% CO2 atmosphere. The cells on the entire lower horizontal surface of the well were scored for neurite growth at 18-20 hours using an inverted microscope fitted with phase contrast optics. A neurite was scored if its caliber from the origin to terminal was constant and its length was equal to or greater than 1.5 cell body diameters. Neurite growth was corrected for background (no NGF).
# DRG neurons [2] = experiment: NT-3-dependent neurite outgrowth of DRG neurons; type: cell-based, chick; conditions: n = 8
# Procedure: as §1
# Human recombinant BDNF and human recombinant NT-3 were obtained from Alomone Laboratories (Israel). The iodination, crosslinking, and binding experiments using BDNF and NT-3 were performed using the methods described above for NGF. Neurite outgrowth assays were performed as described in the presence of 4.0 nM NT-3 or 8.0 nM BDNF.
# [3] = test system: kindling-induced seizures; conditions: kindling animal model of epilepsy (Rashid et al. 1995); cited from earlier work
# p75 = experiment: Affinity cross-linking of 125I-NGF to p75 on PC12 cells; type: binding, rat; conditions: for Inhibition of p75 Interaction: 0.1 nM 125I-NGF, PC12 cells
# Procedure: The ability of the peptides under study to interfere with binding of NGF to NGF receptors was evaluated by analysis of inhibition of the chemical cross-linking of ^251 I-NGF to the common neurotrophin receptor p75 (Chao, J. Neurobiol. 25:1373-1385 (1994)) and the specific NGF receptor TrkA (Barbacid, J. Neurobiol. 25: 1386-1403 (1994)). Immunoprecipitation and polyacrylamide gel electrphoresis of cross linked receptors allowed identification of both receptors, as shown in FIG. 7A. […] At concentrations of 200 μM, neither R11(l) nor R11(m) were able to inhibit greater than 50% of the observed ^125 I-labelling.
# The ability of the peptides derived from the 68-58/108-110 region of NGF to antagonize NGF interaction with the p75 and TrkA receptors was determined The peptides tested were bicyclic (BC) 68-58/108-110, cyclic (C) 68-58/108-110, and linear (L) 68-58/108-110, each of which are illustrated in FIGS. 2 and 5D
# Receptor cross-linking studies were performed on PC12 rat pheochromocytoma cells (ATCC CRL 1721; Greene et al., Proc. Natl. Acad. Sci. USA 73: 2424-2432 (1976)) which were maintained in RPMI1640 (Gibco) supplemented with 10% fetal calf serum (Gibco). Cells were harvested by incubation and trituration in Ca^2+ and Mg^2+ free Gey's balanced salt solution, washed and suspended in 10 mM HEPES buffer (pH 7.35) containing 125 mM NaCl, 4.8 mM KCl, 1.3 mM CaCl2, […], 1.2 mM KH2 PO4, 1 g/L sucrose and 1 g/L bovine serum albumin (HEPES Krebs Ringer buffer, HKR buffer) at 10^6 cells/mL. Subsequent procedures were carried out at 4° C. unless otherwise noted.
# For receptor crosslinking, ^125 I-NGF was prepared by the method of Sutter et al. (J. Biol. Chem. 254: 5972-5982 (1979)) from NGF isolated from mouse submaxillary gland (as described in Mobley et al., Biochemistry 15:1543 (1976)) obtained from Cedarlane.
# […] Control PC12 cells were incubated in HKR buffer in the presence of ^125 I-NGF only (no NGF peptide).
# Receptor proteins were cross-linked with either 0.4 mM bis(sulfosuccinimidyl)suberate (BS^3, Pierce) for TrkA, or a combination of 2 mM […] (EDC) and 2 mM N-hydroxysulfosuccinimide (S-NHS) for p75^NTR as indicated. All cross-linking agents (from Pierce) were dissolved in water and added in 20 μL aliquots and the reaction allowed to proceed for 30 min at 25° C. On completion of the cross-linking reaction, the cells were washed three times in HKR buffer with BSA at 4° C. to remove excess free radiolabelled ligand and reagents. The cells were solubilized in 100 μL SDS sample buffer Samples were separated on a modified Laemmli discontinues acrylamide gel system (Laemmli, Nature 227:680 (1970)) using 4% SDS-PAGE stacking gel and a gradient urea polyacrylamide separating gel ranging from 4.5% acrylamide/18% urea to 7.5% acrylamide/48% urea. The gels were fixed and processed for autoradiography using -70° C. exposure with Kodak XAR film and manual processing (FIG. 7B).
# For positive receptor identification, immunoprecipitation studies were performed. Samples of 10^7 cells in 1 mL HKR buffer were cross-linked under the conditions described above, washed in HKR buffer and solubilized in non-denaturing lysis buffer (1% NP40, 10% glycerol, 1 mM phenylmethylsulfonylfluoride, 10 μg/mL leupeptin and 0.5 mM o-vanadate in Tris-buffered saline) (Kaplan et al., Nature 350:1 158-160 (1991)). The solutions were clarified by centrifugation and immunoprecipitated with either mAb 192 (monoclonal antibody for p75; Cedarlane) or rabbit anti-TrkA, which had been raised against a COOH-terminal peptide of TrkA. The ^125 I-NGF cross-linked receptor-antibody complexes were isolated using 50 μL of a 50% solution of rabbit anti-mouse agarose (Sigma; for mAb 192) or protein A-Sepharose (Pharmcia; for anti-Trk) equilibrated in lysis buffer. Immunoprecipitates were washed three times in lysis buffer and the pellets denatured in SDS reducing sample buffer. […]
# NGF = biological target: T1, NGF (Mus musculus, UniProt P01139); experiment: Cross-linking of NGF protomers in a cell-free system (Example 6); type: biochemical
# T1 construct: homodimer
# T1 sequence (P01139 122-239): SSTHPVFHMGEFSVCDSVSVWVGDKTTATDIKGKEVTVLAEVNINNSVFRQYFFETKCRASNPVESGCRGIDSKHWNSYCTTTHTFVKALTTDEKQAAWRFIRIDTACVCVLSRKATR
# From the text: That is, under denaturing conditions, NGF normally dissociates and electrophoreses as a monomer (FIG. 8, lane 1). In contrast, native NGF dimers that had been covalently cross-linked by BS^3 were unable to dissociate and were resolved from free monomer as a more slowly migrating band on the gel (FIG. 8, lane 2).
Compound,NGF-induced neurite extension (DRG neurons [1]),"Neurite Outgrowth, NT-3 (4.0 nM) (DRG neurons [2]; 30 μM Zn2+)","Neurite Outgrowth, NT-3 (4.0 nM) (DRG neurons [2]; 50 μM Zn2+)",Inhibition of seizure and mossy fiber sprouting [3],Inhibition of p75 Interaction (p75; 20 μM peptide),"Inhibition of p75 Interaction (p75; 200 μM peptide, listed as BC)","Covalent attachment of 125I-NGF to receptor (p75) (p75; 200 μM, result in words)",NGF protomer cross-linking to BSA (NGF; 100 μM R11),"Cross-linking of NGF promoters by BS3 (NGF; 100 μM R11, cell-free)"
[Zn+2] [Zn^2+],inhibited neurite extension,79.9 ± 13.8 % Maximum process bearing neur,18.4 ± 9.6 % Maximum process bearing neur,–,–,–,–,–,–
"NH2 -Cys-Gly-Ser-Glu-Val-Pro-Asn-Ser-Ala-Arg-Cys-Cys-Val-Cys-OH (H-CGSEVPNSARCCVC-OH; disulfide 1-14, 11-12) [R11, bicyclic peptide of NGF residues 68-58/108-110, two disulfide bonds]",–,–,–,inhibit both seizure and mossy fiber sprouting,+ (indicates less than 50% inhibition),++ (indicates greater than 50% inhibition),effectively prevented the covalent attachment,increased dramatically,reduced almost to the point of elimination; also recorded: loss of NGF dimer
